Tests used:
MAP kinase p38 [1] = target: T1, MAP kinase p38 (Homo sapiens, UniProt O15264+Q15759+Q16539+P53778); test: Inhibitory activity against mitogen-activated protein kinase p38 at 10 e-4 to 10 e-8 M concentration; type: protein assay
MAP kinase p38 [2] = target: T1, MAP kinase p38; test: Inhibitory activity against induction of IL-1-beta release in PBMCs; type: functional
MAP kinase p38 [3] = target: T1, MAP kinase p38; test: Inhibitory activity against TNF-alpha release in PBM cells; type: functional, cell-based
CYP2C19 = CYP2C19 (Homo sapiens, UniProt P33261); test: Inhibition of Cytochrome P450 2C19 at 10 uM; type: ADME
Sequence of CYP2C19 (P33261 whole entry): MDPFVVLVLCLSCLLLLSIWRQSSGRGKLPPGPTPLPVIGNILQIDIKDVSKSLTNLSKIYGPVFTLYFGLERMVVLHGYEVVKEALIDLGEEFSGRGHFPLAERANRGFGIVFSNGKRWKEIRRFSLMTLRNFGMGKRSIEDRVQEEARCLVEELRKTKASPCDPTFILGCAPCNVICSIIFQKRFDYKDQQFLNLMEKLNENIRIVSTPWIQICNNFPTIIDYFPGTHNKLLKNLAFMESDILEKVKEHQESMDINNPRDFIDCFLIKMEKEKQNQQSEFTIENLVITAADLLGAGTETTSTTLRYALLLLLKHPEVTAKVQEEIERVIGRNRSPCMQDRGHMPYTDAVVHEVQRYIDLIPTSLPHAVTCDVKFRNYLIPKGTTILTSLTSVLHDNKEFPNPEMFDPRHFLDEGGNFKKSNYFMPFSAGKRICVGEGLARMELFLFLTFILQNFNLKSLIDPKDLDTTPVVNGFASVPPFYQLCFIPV

CYP2C9 = CYP2C9 (Homo sapiens, UniProt P11712); test: Inhibition of Cytochrome P450 2C9 at 10 uM; type: ADME
Sequence of CYP2C9 (P11712 whole entry): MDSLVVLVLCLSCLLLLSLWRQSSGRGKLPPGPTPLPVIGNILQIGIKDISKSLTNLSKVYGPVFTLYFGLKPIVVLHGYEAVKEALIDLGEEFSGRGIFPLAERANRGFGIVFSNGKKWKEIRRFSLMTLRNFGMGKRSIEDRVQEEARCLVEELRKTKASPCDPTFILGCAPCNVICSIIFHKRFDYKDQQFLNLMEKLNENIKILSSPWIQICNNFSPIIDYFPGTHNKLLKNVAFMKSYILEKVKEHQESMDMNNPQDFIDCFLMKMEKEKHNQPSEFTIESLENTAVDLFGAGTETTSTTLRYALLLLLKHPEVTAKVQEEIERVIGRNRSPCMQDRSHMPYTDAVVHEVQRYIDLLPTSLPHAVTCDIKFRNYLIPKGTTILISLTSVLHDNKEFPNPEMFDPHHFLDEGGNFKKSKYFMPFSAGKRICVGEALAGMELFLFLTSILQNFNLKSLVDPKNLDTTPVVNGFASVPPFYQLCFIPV

CYP3A4 = CYP3A4 (Homo sapiens, UniProt P08684); test: Inhibition of Cytochrome P450 3A4 at 10 uM; type: ADME
Sequence of CYP3A4 (P08684 whole entry): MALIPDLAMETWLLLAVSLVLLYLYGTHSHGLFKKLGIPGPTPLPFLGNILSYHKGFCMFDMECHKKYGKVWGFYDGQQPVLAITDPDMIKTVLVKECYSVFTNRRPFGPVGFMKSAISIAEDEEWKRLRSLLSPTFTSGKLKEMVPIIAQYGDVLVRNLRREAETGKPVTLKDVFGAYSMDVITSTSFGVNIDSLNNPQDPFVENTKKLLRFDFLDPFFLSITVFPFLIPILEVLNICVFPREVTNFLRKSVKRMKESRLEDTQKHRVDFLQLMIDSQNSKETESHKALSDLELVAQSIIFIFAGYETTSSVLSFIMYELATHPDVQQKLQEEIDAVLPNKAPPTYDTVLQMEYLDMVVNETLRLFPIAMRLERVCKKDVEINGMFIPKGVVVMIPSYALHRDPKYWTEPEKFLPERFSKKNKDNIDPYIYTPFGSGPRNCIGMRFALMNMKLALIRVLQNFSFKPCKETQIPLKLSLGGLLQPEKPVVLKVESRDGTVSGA

CYP1A2 = target: T2, CYP1A2 (Homo sapiens, UniProt P05177); test: Inhibition of Cytochrome P450 1A2 at 10 uM; type: ADME
T2 sequence (P05177 whole entry): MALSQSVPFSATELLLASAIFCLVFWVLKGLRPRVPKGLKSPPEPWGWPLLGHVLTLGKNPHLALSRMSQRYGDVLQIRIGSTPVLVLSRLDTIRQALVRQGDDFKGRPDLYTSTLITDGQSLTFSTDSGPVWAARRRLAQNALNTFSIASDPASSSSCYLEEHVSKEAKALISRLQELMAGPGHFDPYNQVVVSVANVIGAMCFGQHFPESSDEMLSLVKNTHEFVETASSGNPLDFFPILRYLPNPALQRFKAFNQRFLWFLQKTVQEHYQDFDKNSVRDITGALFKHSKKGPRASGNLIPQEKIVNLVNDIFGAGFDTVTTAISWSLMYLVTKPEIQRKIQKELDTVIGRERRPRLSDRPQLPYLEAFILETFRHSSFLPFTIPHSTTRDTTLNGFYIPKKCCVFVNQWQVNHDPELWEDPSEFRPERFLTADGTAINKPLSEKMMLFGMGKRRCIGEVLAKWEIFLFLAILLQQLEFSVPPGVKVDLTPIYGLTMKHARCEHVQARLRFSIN

CYP2D6 = CYP2D6 (Homo sapiens, UniProt P10635); test: Inhibition of Cytochrome P450 2D6 at 10 uM; type: ADME
Sequence of CYP2D6 (P10635 whole entry): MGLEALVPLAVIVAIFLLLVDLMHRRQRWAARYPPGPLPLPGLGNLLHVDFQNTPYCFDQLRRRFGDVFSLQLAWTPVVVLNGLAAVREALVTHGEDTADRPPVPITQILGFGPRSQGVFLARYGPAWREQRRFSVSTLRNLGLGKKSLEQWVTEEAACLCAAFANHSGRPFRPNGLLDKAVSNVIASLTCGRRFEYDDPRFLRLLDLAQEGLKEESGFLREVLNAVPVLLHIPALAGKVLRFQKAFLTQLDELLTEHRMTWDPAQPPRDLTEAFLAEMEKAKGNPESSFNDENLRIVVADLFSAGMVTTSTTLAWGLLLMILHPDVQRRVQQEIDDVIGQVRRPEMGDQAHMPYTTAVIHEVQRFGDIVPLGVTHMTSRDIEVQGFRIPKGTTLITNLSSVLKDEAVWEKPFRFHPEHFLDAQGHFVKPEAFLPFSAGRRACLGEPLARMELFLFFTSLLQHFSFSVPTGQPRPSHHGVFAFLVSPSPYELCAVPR

MAP kinase p38 [4] = target: T1, MAP kinase p38; test: Inhibition of p38-related TNF-alpha release by whole blood cells at 10 e-4 to 10 e-8 M; type: functional
MAP kinase p38 [5] = target: T1, MAP kinase p38; test: Inhibition of p38-related IL1-beta release by whole blood cells at 10 e-4 to 10 e-8 M; type: functional

Compound: CSc1nc(-c2ccc(F)cc2)c(-c2ccnc(Nc3ccccc3)c2)[nH]1
- IC50 (MAP kinase p38 [1]): 130 nM
- IC50 (MAP kinase p38 [2]): 30 nM
- IC50 (MAP kinase p38 [3]): 340 nM

Compound: COc1ccc(CNc2cc(-c3[nH]c(SC)nc3-c3ccc(F)cc3)ccn2)cc1
- IC50 (MAP kinase p38 [1]): 790 nM
- IC50 (MAP kinase p38 [2]): 56 nM
- IC50 (MAP kinase p38 [3]): 640 nM

Compound: C[S+]([O-])c1ccc(-c2nc(-c3ccncc3)c(-c3ccc(F)cc3)[nH]2)cc1 (stereo unspecified) [SB-203580]
- inhibition at 10 µM (CYP2C19): 85%
- inhibition at 10 µM (CYP2C9): 75%
- inhibition at 10 µM (CYP3A4): 61%
- inhibition at 10 µM (CYP1A2): 61%
- inhibition at 10 µM (CYP2D6): 67%

Compound: CSc1nc(-c2ccc(F)cc2)c(-c2ccnc(NCc3ccccc3)c2)n1C
- IC50 (MAP kinase p38 [1]): 930 nM
- IC50 (MAP kinase p38 [2]): 82 nM
- IC50 (MAP kinase p38 [3]): 580 nM

Compound: CSc1nc(-c2ccc(F)cc2)c(-c2ccnc(NC(C)=O)c2)n1C1CC(C)(C)NC(C)(C)C1
- inhibition at 10 µM (CYP2C19): 7.6%
- inhibition at 10 µM (CYP2C9): 2.6%
- inhibition at 10 µM (CYP3A4): 79%
- inhibition at 10 µM (CYP1A2): < 0%
- inhibition at 10 µM (CYP2D6): 14.6%
- IC50 (MAP kinase p38 [1]): 340 nM
- IC50 (MAP kinase p38 [2]): 460 nM
- IC50 (MAP kinase p38 [3]): 4500 nM
- IC50 (MAP kinase p38 [4]): 5400 nM
- IC50 (MAP kinase p38 [5]): 2150 nM

Compound: CCCn1c(SC)nc(-c2ccc(F)cc2)c1-c1ccncc1
- IC50 (MAP kinase p38 [1]): 2200 nM
- IC50 (MAP kinase p38 [2]): 360 nM
- IC50 (MAP kinase p38 [3]): 1300 nM

Compound: CCCn1c(SC)nc(-c2ccc(F)cc2)c1-c1ccnc(NCC)c1
- IC50 (MAP kinase p38 [2]): 150 nM
- IC50 (MAP kinase p38 [3]): 430 nM

Compound: Fc1ccc(-c2nc(SCc3ccccc3)[nH]c2-c2ccnc(F)c2)cc1
- IC50 (MAP kinase p38 [1]): 4200 nM
- IC50 (MAP kinase p38 [2]): 2900 nM
- IC50 (MAP kinase p38 [3]): 40500 nM

Compound: CC(Nc1cc(-c2[nH]c(SCc3ccc([S+](C)[O-])cc3)nc2-c2ccc(F)cc2)ccn1)c1ccccc1 (stereo unspecified)
- IC50 (MAP kinase p38 [1]): 270 nM
- IC50 (MAP kinase p38 [2]): 40 nM
- IC50 (MAP kinase p38 [3]): 910 nM

Compound: CSc1nc(-c2ccc(F)cc2)c(-c2ccnc(NC(C)c3ccccc3)c2)n1C (stereo unspecified)
- inhibition at 10 µM (CYP2C19): 90.9%
- inhibition at 10 µM (CYP2C9): 83.3%
- inhibition at 10 µM (CYP3A4): 85.8%
- inhibition at 10 µM (CYP1A2): 57.1%
- inhibition at 10 µM (CYP2D6): 12.4%
- IC50 (MAP kinase p38 [1]): 220 nM
- IC50 (MAP kinase p38 [2]): 15 nM
- IC50 (MAP kinase p38 [3]): 110 nM
- IC50 (MAP kinase p38 [4]): 3000 nM
- IC50 (MAP kinase p38 [5]): 4100 nM

Compound: C[S+]([O-])c1ccc(CSc2nc(-c3ccc(F)cc3)c(-c3ccnc(NCc4ccccc4)c3)[nH]2)cc1 (stereo unspecified)
- IC50 (MAP kinase p38 [1]): 1450 nM
- IC50 (MAP kinase p38 [2]): 470 nM
- IC50 (MAP kinase p38 [3]): 2000 nM

Compound: C[S+]([O-])c1ccc(CSc2nc(-c3ccc(F)cc3)c(-c3ccnc(Cl)c3)[nH]2)cc1 (stereo unspecified)
- IC50 (MAP kinase p38 [2]): 2100 nM
- IC50 (MAP kinase p38 [3]): 12000 nM

Compound: CSc1nc(-c2ccc(F)cc2)c(-c2ccnc(NCc3ccc(Cl)cc3)c2)[nH]1
- IC50 (MAP kinase p38 [1]): 950 nM
- IC50 (MAP kinase p38 [2]): 150 nM
- IC50 (MAP kinase p38 [3]): 500 nM

Compound: COc1ccc(C(=O)Nc2cc(-c3c(-c4ccc(F)cc4)nc(SC)n3C)ccn2)cc1
- IC50 (MAP kinase p38 [2]): 440 nM
- IC50 (MAP kinase p38 [3]): 640 nM

Compound: C[S+]([O-])c1ccc(CSc2nc(-c3ccc(F)cc3)c(-c3ccnc(F)c3)[nH]2)cc1 (stereo unspecified)
- IC50 (MAP kinase p38 [1]): 9300 nM
- IC50 (MAP kinase p38 [2]): 2450 nM
- IC50 (MAP kinase p38 [3]): 6900 nM

Compound: CCNc1cc(-c2c(-c3ccc(F)cc3)nc(SC)n2C2CC(C)(C)NC(C)(C)C2)ccn1
- IC50 (MAP kinase p38 [1]): 220 nM
- IC50 (MAP kinase p38 [2]): 620 nM
- IC50 (MAP kinase p38 [3]): 2900 nM
- IC50 (MAP kinase p38 [4]): 11000 nM
- IC50 (MAP kinase p38 [5]): 2700 nM

Compound: CSc1nc(-c2ccc(F)cc2)c(-c2ccnc(F)c2)[nH]1
- IC50 (MAP kinase p38 [1]): 3800 nM
- IC50 (MAP kinase p38 [2]): 300 nM
- IC50 (MAP kinase p38 [3]): 2800 nM

Compound: CSc1nc(-c2ccc(F)cc2)c(-c2ccnc(NCc3ccc(Cl)c(Cl)c3)c2)[nH]1
- IC50 (MAP kinase p38 [1]): 700 nM
- IC50 (MAP kinase p38 [2]): 230 nM
- IC50 (MAP kinase p38 [3]): 720 nM

Compound: CSc1nc(-c2ccc(F)cc2)c(-c2ccncc2)[nH]1
- inhibition at 10 µM (CYP2C19): 79.5%
- inhibition at 10 µM (CYP2C9): 72.4%
- inhibition at 10 µM (CYP3A4): 81.4%
- inhibition at 10 µM (CYP1A2): 43.5%
- inhibition at 10 µM (CYP2D6): 39.8%
- IC50 (MAP kinase p38 [1]): 630 nM
- IC50 (MAP kinase p38 [2]): 44 nM
- IC50 (MAP kinase p38 [3]): 900 nM
- IC50 (MAP kinase p38 [4]): 4200 nM
- IC50 (MAP kinase p38 [5]): 1200 nM

Compound: CSc1nc(-c2ccc(F)cc2)c(-c2ccncc2)n1C1CC(C)(C)NC(C)(C)C1
- inhibition at 10 µM (CYP2C19): 15.3%
- inhibition at 10 µM (CYP2C9): 7.9%
- inhibition at 10 µM (CYP3A4): 49.6%
- inhibition at 10 µM (CYP1A2): 9%
- inhibition at 10 µM (CYP2D6): 19.1%
- IC50 (MAP kinase p38 [1]): 17000 nM
- IC50 (MAP kinase p38 [2]): 850 nM
- IC50 (MAP kinase p38 [3]): 16000 nM
- IC50 (MAP kinase p38 [4]): 19100 nM
- IC50 (MAP kinase p38 [5]): 18500 nM

Compound: Fc1ccc(-c2nc(SCc3ccccc3)[nH]c2-c2ccnc(Cl)c2)cc1
- IC50 (MAP kinase p38 [2]): 1800 nM
- IC50 (MAP kinase p38 [3]): 60000 nM
